# Marks after values point to notes of the source that are not given here.
# Experiments:
# serum vitamin A = assay: Example 4: serum vitamin A in nursery pigs fed full or partial compositions of Combo, weaning to end of nursery; format: in vivo
# Experimental: Serum samples were collected from two randomly selected pigs per pen with a total of 4 pigs per treatment at weaning (prior to access of the experimental diets) and at the end of the nursery phase when pigs reached approximately 45 lb of BW. Serum samples were analyzed for vitamin A concentration.
# nursery pigs = assay: Example 4: growth performance and livability of nursery pigs from 8 to 45 lb of BW, full vs. partial components, 65 d
# Excerpt: To evaluate the effects of dietary supplementation of the full vs. partial components of a beta-glucan/yeast cell wall/direct fed microbials/L-carnitine combination (Combo), a study was designed to feed the dietary treatments as shown Table 14 to nursery pigs from approximately 8 to 45 lb of BW post-weaning. Specifically, a total of 216 mixed-gender pigs were randomly placed in pens with 27 pigs per pen at weaning. Pens were blocked by weaning weight and pens within block were randomly assigned to one of 4 dietary treatments resulting in two pens per treatment. This study was conducted for 65 days in a 4-phase feeding program immediately after weaning.
# Concentration of DFM was no less than 7.5×10^8 cfu/g of the product. Dietary concentrations of beta-glucan, yeast cell wall, DFM and carnitine were the same for each of the treatments if included in the diets.
# [1] = end of nursery (approx. 45 lb BW)
# [2] = 8 to 45 lb BW, Combo and Yeast/DFM 1.0 lb/ton, L-Carnitine 50 ppm
# [3] = Early nursery, Phase 1 to 2, 22 d post-weaning
# [4] = Entire nursery, Phase 1 to 4, 65 d post-weaning
# [5] = Late nursery, Phase 3 to 4, 43 d post-weaning
compound,measurement,setting,value
"C[N+](C)(C)C[C@H](O)CC(=O)[O-] [carnitine, L-Carnitine]",percentage increase of serum vitamin A concentration from weaning to the end of nursery,"serum vitamin A; Combo and Yeast/DFM 1.0 lb/ton, L-Carnitine 50 ppm, FIG. 6",114%
same,"serum vitamin A concentration, Max.",serum vitamin A; [1],0.198 ppm
same,"serum vitamin A concentration, Mean",serum vitamin A; [1],0.168 ppm
same,"serum vitamin A concentration, Min.",serum vitamin A; [1],0.143 ppm
same,serum vitamin A concentration at the end of nursery,"serum vitamin A; ~45 lb BW, Combo and Yeast/DFM 1.0 lb/ton, L-Carnitine 50 ppm, 4 pigs per treatment",0.503 ppm
same,greater nursery closeout ADG compared to Control,nursery pigs; [2],29%
same,greater nursery closeout G/F compared to Control,nursery pigs; [2],29%
same,BW end of Phase 2,"nursery pigs; Early nursery, 22 d post-weaning",13.3 ^b lb
same,ADFI,"nursery pigs; Early nursery, Phase 1 to 2, 22 d",0.68 lb/day
same,ADG,nursery pigs; [3],0.16 lb/day
same,G:F,nursery pigs; [3],0.241 ^b
same,Mortality,nursery pigs; [3],31.48%
same,ADFI,"nursery pigs; Entire nursery, Phase 1 to 4, 65 d",1.01 ^a lb/day
same,ADG,nursery pigs; [4],0.31 ª lb/day
same,"ADG, change compared to Control",nursery pigs; [4],(+29%)
same,G/F,nursery pigs; [4],0.282 ^b
same,"G/F, change compared to Control",nursery pigs; [4],(+29%)
same,Mortality,nursery pigs; [4],46.30%
same,Closeout BW end of Phase 4,"nursery pigs; Late nursery, Phase 3 to 4",43.2 lb
same,ADFI,"nursery pigs; Late nursery, Phase 3 to 4, 43 d",1.32 ª lb/day
same,ADG,nursery pigs; [5],0.78 ^c lb/day
same,F/G,nursery pigs; [5],1.69
same,Mortality,nursery pigs; [5],14.81%

# Reference: patent US20250057191A1, “METHODS OF IMPROVING THE NUTRITIONAL STATUS OF IMMUNE STRESSED ANIMALS” (ELANCO US INC., priority 2021, published 2025)
